Measured values from patent US9884868B2, “TGF-beta inhibitors” (Rigel Pharmaceuticals, Inc., priority 2015, dated 2018).
Read-outs that look alike come from different tables or passages of the source.

Key:
[1] = tested on: GDF8 signaling (p-SMAD-3 (Ser423/425)); assay: AlphaScreen SureFire SMAD3 (p-Ser423/425) assay, GDF8-stimulated cells (GDF pSMAD (MPC11)); type: cell-based; details: pSMAD3 readout, read-out: GDF8 (inhibition of GDF8 signaling
[2] = tested on: TGF-β signaling (p-SMAD-3 (Ser423/425)); assay: AlphaScreen SureFire SMAD3 (p-Ser423/425) assay, TGF-β-stimulated cells (TGF-β pSMAD (MPC-11)); type: cell-based; details: pSMAD3 readout, read-out: TGF-β (inhibition of TGF-β signaling
HIS-TGF-βR2 WT = HIS-TGF-βR2 WT (Homo sapiens (Human), UniProt P37173); assay: HTRF probe displacement assay with HIS-TGF-βR2 WT
HIS-TGF-βR1 T204D = HIS-TGF-βR1 T204D (Homo sapiens (Human), UniProt P36897, T204D); assay: HTRF probe displacement assay with HIS-TGF-βR1 T204D
[3] = read-out: TGFBr2 IC50, HTRF probe displacement, 1 nM HIS-TGF-βR2 WT, 1 hour at room temperature
[4] = read-out: TGFbr1 IC50, HTRF probe displacement, 1 nM HIS-TGF-βR1 T204D, 1 hour at room temperature

HIS-TGF-βR2 WT, sequence (P37173 23-567): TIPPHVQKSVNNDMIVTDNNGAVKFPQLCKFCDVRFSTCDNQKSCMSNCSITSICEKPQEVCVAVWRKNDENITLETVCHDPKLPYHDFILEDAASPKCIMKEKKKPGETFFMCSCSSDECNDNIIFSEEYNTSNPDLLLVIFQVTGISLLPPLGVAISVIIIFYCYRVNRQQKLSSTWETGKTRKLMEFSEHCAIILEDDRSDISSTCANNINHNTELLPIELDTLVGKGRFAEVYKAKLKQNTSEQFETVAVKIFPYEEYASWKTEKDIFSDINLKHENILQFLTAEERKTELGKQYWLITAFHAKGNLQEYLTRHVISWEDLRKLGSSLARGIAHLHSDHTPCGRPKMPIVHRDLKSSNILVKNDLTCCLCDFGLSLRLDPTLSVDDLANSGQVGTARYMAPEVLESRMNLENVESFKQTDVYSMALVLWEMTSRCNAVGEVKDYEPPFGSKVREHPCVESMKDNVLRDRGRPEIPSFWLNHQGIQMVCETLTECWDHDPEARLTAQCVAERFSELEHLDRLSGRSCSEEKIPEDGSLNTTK
HIS-TGF-βR1 T204D, sequence (P36897 34-503 T204D): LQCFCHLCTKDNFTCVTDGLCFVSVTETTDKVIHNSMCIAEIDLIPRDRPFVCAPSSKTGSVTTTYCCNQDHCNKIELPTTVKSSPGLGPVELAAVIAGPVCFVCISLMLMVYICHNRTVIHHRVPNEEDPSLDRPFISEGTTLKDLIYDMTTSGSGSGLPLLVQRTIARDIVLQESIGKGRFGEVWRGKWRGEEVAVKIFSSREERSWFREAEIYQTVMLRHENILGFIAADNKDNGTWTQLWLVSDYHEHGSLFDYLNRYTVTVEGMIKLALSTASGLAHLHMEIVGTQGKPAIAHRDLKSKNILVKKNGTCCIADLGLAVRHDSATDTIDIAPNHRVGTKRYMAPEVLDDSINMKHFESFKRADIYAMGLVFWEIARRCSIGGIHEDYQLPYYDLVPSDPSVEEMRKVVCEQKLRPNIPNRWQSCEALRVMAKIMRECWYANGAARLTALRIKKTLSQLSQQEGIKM

Molecule | IC50 (HIS-TGF-βR2 WT; [3]) | IC50 (HIS-TGF-βR1 T204D; [4]) | further results
Cc1cc(-c2ncn(C)c2-c2ccc3cn[nH]c3c2)ccc1F [Compound 5, 6-(4-(4-Fluoro-3-methylphenyl)-1-methyl-1H-imidazol-5-yl)-1H-indazole] |  |  | IC50 [1]: 0.01 µM; IC50 [2]: 0.02 µM
NC(=O)c1cnc2ccc(-c3c(-c4ccc(F)cc4)ncn3C3CC(F)(F)C3)cn12 [180′, 6-(1-(3,3-difluorocyclobutyl)-4-(4-fluorophenyl)-1H-imidazol-5-yl)imidazo[1,2-a]pyridine-3-carboxamide] | > 15 µM | 0.0037 µM | 
NC(=O)c1cnc2ccc(-c3c(-c4ccc(F)c(Cl)c4)ncn3CCC(F)(F)F)nn12 [115′, 6-(4-(3-chloro-4-fluorophenyl)-1-(3,3,3-trifluoropropyl)-1H-imidazol-5-yl)imidazo[1,2-b]pyridazine-3-carboxamide] |  |  | IC50 (HIS-TGF-βR2 WT): > 15 µM; IC50 (HIS-TGF-βR1 T204D): 0.0046 µM
Fc1ccc(-c2ncn(CC(F)F)c2-c2ccc3ncc(CNC4CC(F)(F)C4)n3c2)cc1 [276′, N-((6-(1-(2,2-difluoroethyl)-4-(4-fluorophenyl)-1H-imidazol-5-yl)imidazo[1,2-a]pyridin-3-yl)methyl)-3,3-difluorocyclobutanamine] | > 15 µM | 0.988 µM | 
N#Cc1cnc2ccc(-c3c(-c4ccc(F)c(Cl)c4)ncn3C3CCOCC3)nn12 [48′, 6-(4-(3-chloro-4-fluorophenyl)-1-(tetrahydro-2H-pyran-4-yl)-1H-imidazol-5-yl)imidazo[1,2-b]pyridazine-3-carbonitrile] | > 15 µM | 0.0031 µM | 
NC(=O)c1cnc2ccc(-c3c(-c4ccc(F)cc4)nc4n3CCN(CC(F)F)C4)cn12 [Example 294′, 6-(7-(2,2-difluoroethyl)-2-(4-fluorophenyl)-5,6,7,8-tetrahydroimidazo[1,2-a]pyrazin-3-yl)imidazo[1,2-a]pyridine-3-carboxamide] | > 15 µM | 0.0272 µM | 
COC(=O)N1CCn2c(nc(-c3ccc(F)cc3)c2-c2ccc3ncc(C(N)=O)n3c2)C1 [Example 291′, methyl 3-(3-carbamoylimidazo[1,2-a]pyridin-6-yl)-2-(4-fluorophenyl)-5,6-dihydroimidazo[1,2-a]pyrazine-7(8H)-carboxylate] | > 15 µM | 0.0305 µM | 
NC(=O)c1cnc2ccc(-c3c(-c4ccc(F)c(Cl)c4)ncn3C3CC(F)(F)C3)cn12 [121′, 6-(4-(3-chloro-4-fluorophenyl)-1-(3,3-difluorocyclobutyl)-1H-imidazol-5-yl)imidazo[1,2-a]pyridine-3-carboxamide] | > 15 µM | 0.0011 µM | 
CC(C)(C)NC(=O)NCc1cnc2ccc(-c3c(-c4ccc(F)cc4)ncn3CC(F)F)nn12 [Example 199′, 1-(tert-butyl)-3-((6-(1-(2,2-difluoroethyl)-4-(4-fluorophenyl)-1H-imidazol-5-yl)imidazo[1,2-b]pyridazin-3-yl)methyl)urea] | > 15 µM | 0.0095 µM | 
N#Cc1cnc2ccc(-c3c(-c4ccc(C(F)(F)F)cc4)ncn3CC(F)F)nn12 [244′, 6-(1-(2,2-difluoroethyl)-4-(4-(trifluoromethyl)phenyl)-1H-imidazol-5-yl)imidazo[1,2-b]pyridazine-3-carbonitrile] | > 15 µM | 0.546 µM | 
Cc1cc(-c2ncn(C)c2-c2ccc3cn[nH]c3c2)ccc1F [Compound 7, 6-(4-(4-Fluoro-3-methylphenyl)-1-methyl-1H-imidazol-5-yl)-1H-indazole] |  |  | IC50 [1]: 0.04 µM; IC50 [2]: 0.15 µM
N#Cc1cnc2ccc(-c3c(-c4ccc(F)cc4)ncn3[C@H](CO)CC(F)(F)F)nn12 [29′, (S)-6-(4-(4-fluorophenyl)-1-(4,4,4-trifluoro-1-hydroxybutan-2-yl)-1H-imidazol-5-yl)imidazo[1,2-b]pyridazine-3-carbonitrile] | > 15 µM | 0.0064 µM | 
CC(C)(O)c1cccc(-c2ncn(CC(F)F)c2-c2ccc3ncc(C#N)n3n2)c1 [265′, 6-(1-(2,2-difluoroethyl)-4-(3-(2-hydroxypropan-2-yl)phenyl)-1H-imidazol-5-yl)imidazo[1,2-b]pyridazine-3-carbonitrile] | > 15 µM | 0.0098 µM | 
COC(=O)NCc1cnc2ccc(-c3c(-c4ccc(F)cc4)ncn3CC(F)F)nn12 [Example 200′, methyl ((6-(1-(2,2-difluoroethyl)-4-(4-fluorophenyl)-1H-imidazol-5-yl)imidazo[1,2-b]pyridazin-3-yl)methyl)carbamate] | > 15 µM | 0.012 µM | 
CCc1nc(-c2cc(C)cc(F)c2)c(-c2ccc3[nH]ncc3c2)[nH]1 [Compound 142, 5-(2-Ethyl-4-(3-fluoro-5-methylphenyl)-1H-imidazol-5-yl)-1H-indazole] |  |  | IC50 [1]: 0.67 µM; IC50 [2]: 4.39 µM
CS(=O)(=O)c1cccc(-c2ncn(CC(F)F)c2-c2ccc3ncc(C#N)n3n2)c1 [254′, 6-(1-(2,2-difluoroethyl)-4-(3-(methylsulfonyl)phenyl)-1H-imidazol-5-yl)imidazo[1,2-b]pyridazine-3-carbonitrile] | > 15 µM | 0.752 µM | 
N#Cc1cnc2ccc(-c3c(-c4ccc(F)cc4)ncn3CC(O)C(F)(F)F)cn12 (stereo not shown) [93′, 6-(4-(4-fluorophenyl)-1-(3,3,3-trifluoro-2-hydroxypropyl)-1H-imidazol-5-yl)imidazo[1,2-a]pyridine-3-carbonitrile] |  |  | IC50 (HIS-TGF-βR2 WT): > 15 µM; IC50 (HIS-TGF-βR1 T204D): 0.576 µM
CC(C)(O)CCn1cnc(-c2ccc(F)c(Cl)c2)c1-c1ccc2ncc(C(N)=O)n2n1 [139′, 6-(4-(3-chloro-4-fluorophenyl)-1-(3-hydroxy-3-methylbutyl)-1H-imidazol-5-yl)imidazo[1,2-b]pyridazine-3-carboxamide] | > 15 µM | 0.0052 µM | 
COCC(C1CC1)n1cnc(-c2ccc(F)cc2)c1-c1ccc2ncc(C(N)=O)n2n1 (stereo not shown) [130′, 6-(1-(1-cyclopropyl-2-methoxyethyl)-4-(4-fluorophenyl)-1H-imidazol-5-yl)imidazo[1,2-b]pyridazine-3-carboxamide] | > 15 µM | 0.0021 µM | 
O=C(NC1CC1)c1cnc2ccc(-c3c(-c4ccc(F)cc4)ncn3CC(F)F)nn12 [208′, N-cyclopropyl-6-(1-(2,2-difluoroethyl)-4-(4-fluorophenyl)-1H-imidazol-5-yl)imidazo[1,2-b]pyridazine-3-carboxamide] | > 15 µM | 0.0012 µM | 
N#Cc1cnc2ccc(-c3c(-c4ccccc4C(F)(F)F)ncn3CC(F)F)nn12 [246′, 6-(1-(2,2-difluoroethyl)-4-(2-(trifluoromethyl)phenyl)-1H-imidazol-5-yl)imidazo[1,2-b]pyridazine-3-carbonitrile] | > 15 µM | 0.144 µM | 
O=C(NC1CC1)c1cnc2ccc(-c3c(-c4ccc(F)cc4)ncn3CC(F)F)cn12 [Example 279′, N-cyclopropyl-6-(1-(2,2-difluoroethyl)-4-(4-fluorophenyl)-1H-imidazol-5-yl)imidazo[1,2-a]pyridine-3-carboxamide] | > 15 µM | 0.0095 µM | 
NC(=O)c1cnc2ccc(-c3c(-c4ccc(F)cc4)ncn3C3CCC(F)(F)C3)nn12 (stereo not shown) [108′, 6-(1-(3,3-difluorocyclopentyl)-4-(4-fluorophenyl)-1H-imidazol-5-yl)imidazo[1,2-b]pyridazine-3-carboxamide] | > 15 µM | 0.0021 µM | 
CC(=O)Nc1cccc(-c2ncn(CC(F)F)c2-c2ccc3ncc(C#N)n3n2)c1 [245′, N-(3-(5-(3-cyanoimidazo[1,2-b]pyridazin-6-yl)-1-(2,2-difluoroethyl)-1H-imidazol-4-yl)phenyl)acetamide] | > 15 µM | 0.0491 µM | 
NC(=O)c1cnc2ccc(-c3c(-c4ccc(F)cc4)ncn3CC(O)C(F)(F)F)cn12 (stereo not shown) [169′, 6-(4-(4-fluorophenyl)-1-(3,3,3-trifluoro-2-hydroxypropyl)-1H-imidazol-5-yl)imidazo[1,2-a]pyridine-3-carboxamide] | > 15 µM | 0.0213 µM | 
NC(=O)c1cnc2ccc(-c3c(-c4ccc(F)c(Cl)c4)ncn3CCN3CCCC3)nn12 [143′, 6-(4-(3-chloro-4-fluorophenyl)-1-(2-(pyrrolidin-1-yl)ethyl)-1H-imidazol-5-yl)imidazo[1,2-b]pyridazine-3-carboxamide] | > 15 µM | 0.0091 µM | 
5-(benzo[d]thiazol-6-yl)-4-(3-chlorophenyl)thiazol-2-amine [Compound 166] |  |  | IC50 [1]: 0.0702 µM
CC(=O)Nc1nc(-c2ccc(F)cc2)c(-c2ccc3ncc(C#N)n3c2)n1CC(F)F [297′] | > 15 µM | 0.542 µM | 
